Data on ten compounds can be found in PMC11190268, “Enhancing structural diversity through chemical engineering of Ambrosia tenuifolia extract for novel anti-glioblastoma compounds” (Scientific Reports, 2024).

Assay type in all cases: cell-based, human
Data set [1] relates to T98G cells. Nature of the data set: MTT cell viability assay in T98G glioblastoma cells. The settings on record: for IC50: Homo sapiens; for IC50 / percentage of cell viability: T98G cells, MTT; for anti-glioblastoma activity (in words): T98G cultures; for percentage of cell viability: 40 or 80 μM. How it is done: (§1) T98G cells were isolated from the brain of a glioblastoma multiforme patient (ATCC, cat. No. CRl-1690, RRUD: CVCL-0556, Manassas, VA, USA). HEK 293 cells are derived from human embryonic kidney cells (ATCC Cat# CRL-1573, RRID: CVCL_0045). Both cell lines were grown in Dulbecco’s modified Eagle’s medium (DMEM, Invitrogen) supplemented with 10% fetal serum bovine serum (FBS) at 37 °C according to reference.
(§2) 3 × 10^3 cells were seeded in a 96-well plate and were allowed to attach overnight at 37 °C. T98G cells were treated in duplicate or triplicate with different concentrations of the crude/chemically modified extract or pure compounds. The stock solutions were dissolved in DMSO at the final concentration of 160 mg/ml and 5 or 80 mM for the crude/chemically modified extracts and pure compounds, respectively. After 24 h, 100 μL of DMEM supplemented with 10% of FBS and 10% of 3-(4,5-dimethylthiazol-2-yl)-2,5-diphenyltetrazolium bromide (MTT) reagent (5 mg/mL; Sigma) were added to each well, and plates were further incubated for 2 h at 37 °C as described in references,[36]. Then, 100 μL of DMSO:isopropanol (1:1, v/v) were added to each well followed by incubation for a few minutes at room temperature protected from light. Absorbance was analyzed at 570 nm with a reference at 650 nm in an Epoch Microplate Spectrophotometer. Cells incubated with an equivalent DMSO concentration were considered 100% of viability. The equation “log(inhibitor) vs response—variable slope (four parameters) of the GraphPad Prism software was used to calculate the IC50 (half maximal inhibitory concentration) value.
To evaluate the standard treatment, T98G cultures were treated with temozolomide (5 to 1400 μM). After 72 h, the MTT assay was used to determined cell viability and the IC50 value was calculated as describe above.

Data set [2] has as its system HEK 293 cells. Put plainly: MTT cell viability assay in non-tumor HEK 293 cells. The settings on record: for selectivity index: HEK 293 versus T98G. How it is done: as §1, §2
The subject of data set [3] is T98G cells. Put plainly: Temporal susceptibility: MTT viability of dexamethasone-synchronized T98G cells. The settings on record: for viability at 13.6 µM: Homo sapiens, 24 h, read-out: cell viability. As for the experimental part: T98G cells were seeded at the density of 3 × 10^3 in a 96-well plate and incubated overnight at 37 °C. Cultured cells were synchronized with dexamethasone (100 nM, 1 h at 37 °C) according to reference and then treated with (3) (13.6 μM) or DMSO at different times post-synchronization for 24 h. After incubation, cell viability was measured by MTT assay as described above. Cells incubated with DMSO were considered as 100% of viability.

[4] abbreviates: pure compounds, 24 h, read-out: IC50.

Read-outs that look alike come from different tables or passages of the source.

As to `C=C1C(=O)O[C@H]2C(=C)[C@]3(CCC(=O)O3)[C@@H](C)CC[C@@H]12` [compound 4, (3aS,6S,7S,8aR)-6-methyl-3,8-dimethyleneoctahydro-5'H-spiro[cyclohepta[b]furan-7,2'-furan]-2,5'(3H)-dione], the IC50 in data set [1] (24 h, 10 to 160 µg/mL tested, read-out: concentration needed to reduce 50% of cell viability) is above 40 µg/mL. The “anti-glioblastoma activity (in words)” value in data set [1] is reported as “less active”.

For the compound `Cn1nnc2c(C(N)=O)ncn2c1=O` [Temozolomide, reference compound], the IC50 in data set [1] (standard treatment, 72 h, read-out: IC50) worked out at 844 µM.

As for `C=C1C(=O)O[C@@H]2[C@H]1CC[C@H](C)[C@]1(CCC(=O)O1)[C@@]2(C)O` [PsiA, psilostachyin A], the IC50 in data set [1] (setting [4]) was 17.4 µM. Further, the selectivity index entry in data set [2] was “Only 3 showed a good selectivity index”.

Regarding `CC1=C(/C=C/C(=O)O)[C@]2(C)CC[C@@H](C=C2C(=O)O)C1` [compound 1, (1R,5S)-4-((E)-2-carboxyvinyl)-3,5-dimethylbicyclo[3.2.2]nona-3,6-diene-6-carboxylic acid], in data set [1] (24 h), the “percentage of cell viability” value was “higher than 50%”. Moreover, the “anti-glioblastoma activity (in words)” value in data set [1] was “weak anti-glioblastoma activity”.

Take `C=C1C(=O)OC2C1CCC(C)=C1CCC(=O)OC12C` (stereo not shown) [PsiB, psilostachyin B]: the IC50 in data set [1] (setting [4]) amounted to 13.9 µM.

With `C=C1C(=O)OC2C(=C)C(CCC(=O)OC)C(C)CCC12` (stereo not shown) [compound 5], the “percentage of cell viability” value in data set [1] (24 h) was “higher than 50%”. Besides, the “anti-glioblastoma activity (in words)” value in data set [1] was “weak anti-glioblastoma activity”.

Take `COC(=O)/C=C/C1=C(C)C[C@@H]2C=C(C(=O)OC)[C@@]1(C)CC2` [compound 2, Methyl (1R,5S)-4-((E)-3-methoxy-3-oxoprop-1-en-1-yl)-3,5-dimethylbicyclo[3.2.2]nona-3,6-diene-6-carboxylate]: in data set [1] (24 h), the “percentage of cell viability” value is recorded as “higher than 50%”. Further, the “anti-glioblastoma activity (in words)” value in data set [1] was “weak anti-glioblastoma activity”.

`C=C1C(=O)O[C@H]2C(=C)[C@@]3(CCC(=O)O3)[C@@H](C)CC[C@@H]12` [compound 3, (3aS,6S,7R,8aR)-6-methyl-3,8-dimethyleneoctahydro-5'H-spiro[cyclohepta[b]furan-7,2'-furan]-2,5'(3H)-dione]: the IC50 in data set [1] (setting [4]) is 13.6 µM; in data set [2] (Homo sapiens, HEK293, 24 h, HEK 293 cells, 24 h, MTT) it was around 39 µM. Also, in data set [1], the “anti-glioblastoma activity (in words)” value is on record as “most active derivative of the series”. The viability at 13.6 µM is 45 to 50% in data set [3] (T98G cells treated at 18 and 24 h post synchronization); around 75% in data set [3] (non-synchronized T98G cells). The “effect of time post synchronization on cell viability” value in data set [3] (T98G cells, Kruskal Wallis test) was “significant effect of time on cell viability”. For the same compound, the selectivity index result in data set [2] is “good selectivity index”.

On to “Methyl 3-((3aS,6S,7S,8aR)-6-methyl-3,8-dimethylene-2-oxooctahydro-2H-cyclohepta[b]furan-7-yl)propanoate [compound 11]”, for which the “percentage of cell viability” value in data set [1] (24 h) was “higher than 50%”. Moreover, the “anti-glioblastoma activity (in words)” value in data set [1] is on record as “weak anti-glioblastoma activity”.

For `C=C1C(=O)OC2C1CCC(C)C1CCC(=O)OC12C` (stereo not shown) [PsiC, psilostachyin C], in data set [1] (setting [4]), the IC50 is 14.2 µM.
